Assay results reported in publication PMC8550792, “Evolution of kinase polypharmacology across HSP90 drug discovery” (Cell Chemical Biology, 2021).

What was measured:
Assay in all cases: biochemical
Format in all cases: biochemical
382 unique human kinases [1] = target: T1, 382 unique human kinases (Homo sapiens, UniProt P22607); conditions: FGFR3, 10 uM; for remaining activity at 10 µM: read-out: % Enzyme Activity (relative to DMSO controls)
T1 construct: purchased Reaction Biology (HotSpot contract assay)

382 unique human kinases [2] = target: T2, 382 unique human kinases (Homo sapiens, UniProt Q8WXR4); conditions: kinase MYO3b, compound 10 uM; for remaining activity at 10 µM: read-out: % Enzyme Activity (relative to DMSO controls)
T2 construct: purchased Reaction Biology (HotSpot contract assay)
T2 sequence (Q8WXR4 1-1341): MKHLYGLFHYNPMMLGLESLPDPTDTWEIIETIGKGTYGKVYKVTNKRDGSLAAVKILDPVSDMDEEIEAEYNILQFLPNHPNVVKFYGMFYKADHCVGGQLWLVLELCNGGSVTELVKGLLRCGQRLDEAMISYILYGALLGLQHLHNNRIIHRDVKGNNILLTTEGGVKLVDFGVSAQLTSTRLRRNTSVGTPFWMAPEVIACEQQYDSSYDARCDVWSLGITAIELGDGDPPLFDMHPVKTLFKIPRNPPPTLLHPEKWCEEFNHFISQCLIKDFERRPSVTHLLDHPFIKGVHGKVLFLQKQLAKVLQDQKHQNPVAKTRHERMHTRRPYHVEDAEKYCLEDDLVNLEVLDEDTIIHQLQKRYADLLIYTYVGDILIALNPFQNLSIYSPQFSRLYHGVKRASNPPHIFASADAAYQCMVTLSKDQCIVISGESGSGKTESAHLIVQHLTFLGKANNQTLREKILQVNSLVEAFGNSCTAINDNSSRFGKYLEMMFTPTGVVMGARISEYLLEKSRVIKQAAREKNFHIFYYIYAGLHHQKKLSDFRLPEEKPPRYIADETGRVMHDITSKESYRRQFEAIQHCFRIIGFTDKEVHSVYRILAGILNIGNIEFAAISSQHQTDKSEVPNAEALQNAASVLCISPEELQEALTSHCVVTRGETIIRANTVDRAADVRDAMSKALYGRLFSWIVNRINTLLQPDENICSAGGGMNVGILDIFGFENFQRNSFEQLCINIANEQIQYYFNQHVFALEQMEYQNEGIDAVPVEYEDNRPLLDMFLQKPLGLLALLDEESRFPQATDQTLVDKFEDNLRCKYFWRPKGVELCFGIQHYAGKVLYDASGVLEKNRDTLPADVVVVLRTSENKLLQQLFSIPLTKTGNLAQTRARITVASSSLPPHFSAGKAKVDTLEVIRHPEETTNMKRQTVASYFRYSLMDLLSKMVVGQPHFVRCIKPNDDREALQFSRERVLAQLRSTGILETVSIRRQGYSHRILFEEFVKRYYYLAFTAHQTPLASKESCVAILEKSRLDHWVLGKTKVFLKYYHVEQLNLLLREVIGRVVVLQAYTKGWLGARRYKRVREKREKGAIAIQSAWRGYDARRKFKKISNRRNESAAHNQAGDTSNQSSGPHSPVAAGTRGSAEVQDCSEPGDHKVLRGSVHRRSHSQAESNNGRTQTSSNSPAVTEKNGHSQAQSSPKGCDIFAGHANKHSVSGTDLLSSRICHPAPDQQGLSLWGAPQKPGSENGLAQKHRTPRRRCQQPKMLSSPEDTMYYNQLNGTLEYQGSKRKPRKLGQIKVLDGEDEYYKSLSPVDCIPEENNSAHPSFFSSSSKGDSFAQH

382 unique human kinases [3] = target: T3, 382 unique human kinases (Homo sapiens, UniProt P15056, K601E); conditions: BRAF (K601E), compound at 10 uM, duplicate values; for remaining activity at 10 µM: read-out: % Enzyme Activity (relative to DMSO controls)
T3 construct: purchased Reaction Biology (HotSpot contract assay)

382 unique human kinases [4] = target: T4, 382 unique human kinases (Homo sapiens, UniProt O14733); conditions: kinase MKK7, compound 10 uM; for remaining activity at 10 µM: read-out: % Enzyme Activity (relative to DMSO controls)
T4 construct: purchased Reaction Biology (HotSpot contract assay)
T4 sequence (O14733 1-419): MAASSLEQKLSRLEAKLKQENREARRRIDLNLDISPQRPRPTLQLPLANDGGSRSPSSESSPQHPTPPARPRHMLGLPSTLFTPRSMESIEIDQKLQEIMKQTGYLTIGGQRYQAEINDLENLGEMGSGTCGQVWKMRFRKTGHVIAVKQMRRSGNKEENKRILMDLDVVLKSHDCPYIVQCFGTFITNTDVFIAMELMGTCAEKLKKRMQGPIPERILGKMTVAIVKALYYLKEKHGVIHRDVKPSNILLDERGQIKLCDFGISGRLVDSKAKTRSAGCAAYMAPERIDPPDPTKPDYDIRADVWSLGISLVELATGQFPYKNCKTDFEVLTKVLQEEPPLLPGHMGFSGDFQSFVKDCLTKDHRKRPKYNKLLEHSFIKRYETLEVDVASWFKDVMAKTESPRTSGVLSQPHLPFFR

382 unique human kinases [5] = target: T5, 382 unique human kinases (Homo sapiens, UniProt Q02763, P883A); conditions: TIE2 (P883A), 10 uM; for remaining activity at 10 µM: read-out: % Enzyme Activity (relative to DMSO controls)
T5 construct: purchased Reaction Biology (HotSpot contract assay)

382 unique human kinases [6] = target: T6, 382 unique human kinases (Homo sapiens, UniProt P78362); conditions: kinase SRPK2, compound 10 uM; for remaining activity at 10 µM: read-out: % Enzyme Activity (relative to DMSO controls)
T6 construct: purchased Reaction Biology (HotSpot contract assay)

382 unique human kinases [7] = target: T7, 382 unique human kinases (Homo sapiens, UniProt Q9Y572); conditions: RIPK3, [ATP] 2.5 µM, compound 10 uM; for remaining activity at 10 µM: read-out: % Enzyme Activity (relative to DMSO controls)
T7 construct: purchased Reaction Biology (HotSpot contract assay)

382 unique human kinases [8] = target: T8, 382 unique human kinases (Homo sapiens, UniProt P49841); conditions: GSK3b, [ATP] 10 µM, compound 10 uM; for remaining activity at 10 µM: read-out: % Enzyme Activity (relative to DMSO controls)
T8 construct: purchased Reaction Biology (HotSpot contract assay)

382 unique human kinases [9] = target: T9, 382 unique human kinases (Homo sapiens, UniProt P53671); conditions: LIMK2, [ATP] 5 µM, compound 10 uM; for remaining activity at 10 µM: read-out: % Enzyme Activity (relative to DMSO controls)
T9 construct: purchased Reaction Biology (HotSpot contract assay)

382 unique human kinases [10] = target: T10, 382 unique human kinases (Homo sapiens, UniProt O14965); conditions: Aurora A, [ATP] 2.5 µM, compound 10 uM; for remaining activity at 10 µM: read-out: % Enzyme Activity (relative to DMSO controls)
T10 construct: purchased Reaction Biology (HotSpot contract assay)
T10 sequence (O14965 1-403): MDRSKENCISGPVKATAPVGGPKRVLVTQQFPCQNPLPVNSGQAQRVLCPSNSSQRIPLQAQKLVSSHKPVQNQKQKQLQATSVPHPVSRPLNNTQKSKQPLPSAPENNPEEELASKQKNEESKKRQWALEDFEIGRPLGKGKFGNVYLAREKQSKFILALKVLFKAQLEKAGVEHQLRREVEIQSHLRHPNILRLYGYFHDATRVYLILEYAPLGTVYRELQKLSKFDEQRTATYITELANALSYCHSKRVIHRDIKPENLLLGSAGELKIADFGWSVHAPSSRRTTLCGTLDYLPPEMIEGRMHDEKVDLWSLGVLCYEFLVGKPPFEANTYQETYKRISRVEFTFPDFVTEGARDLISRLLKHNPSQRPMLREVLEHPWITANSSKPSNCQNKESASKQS

382 unique human kinases [11] = target: T11, 382 unique human kinases (Homo sapiens, UniProt Q13177); conditions: PAK2, 10 uM; for remaining activity at 10 µM: read-out: % Enzyme Activity (relative to DMSO controls)
T11 construct: purchased Reaction Biology (HotSpot contract assay)
T11 sequence (Q13177 whole entry): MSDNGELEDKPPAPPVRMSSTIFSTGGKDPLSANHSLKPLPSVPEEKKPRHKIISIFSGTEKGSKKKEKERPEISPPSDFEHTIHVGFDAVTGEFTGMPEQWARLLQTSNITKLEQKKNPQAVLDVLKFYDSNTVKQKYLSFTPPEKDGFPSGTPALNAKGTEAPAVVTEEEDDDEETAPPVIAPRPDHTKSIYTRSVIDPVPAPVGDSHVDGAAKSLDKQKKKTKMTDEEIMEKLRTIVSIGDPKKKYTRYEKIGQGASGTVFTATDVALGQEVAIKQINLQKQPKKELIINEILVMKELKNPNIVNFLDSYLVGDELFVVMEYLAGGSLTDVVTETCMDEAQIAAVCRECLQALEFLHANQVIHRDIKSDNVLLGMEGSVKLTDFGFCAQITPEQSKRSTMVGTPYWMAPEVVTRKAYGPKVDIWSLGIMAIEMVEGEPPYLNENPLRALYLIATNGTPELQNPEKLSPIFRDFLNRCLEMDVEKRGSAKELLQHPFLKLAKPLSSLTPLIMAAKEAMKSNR

T7 sequence (Q9Y572 whole entry): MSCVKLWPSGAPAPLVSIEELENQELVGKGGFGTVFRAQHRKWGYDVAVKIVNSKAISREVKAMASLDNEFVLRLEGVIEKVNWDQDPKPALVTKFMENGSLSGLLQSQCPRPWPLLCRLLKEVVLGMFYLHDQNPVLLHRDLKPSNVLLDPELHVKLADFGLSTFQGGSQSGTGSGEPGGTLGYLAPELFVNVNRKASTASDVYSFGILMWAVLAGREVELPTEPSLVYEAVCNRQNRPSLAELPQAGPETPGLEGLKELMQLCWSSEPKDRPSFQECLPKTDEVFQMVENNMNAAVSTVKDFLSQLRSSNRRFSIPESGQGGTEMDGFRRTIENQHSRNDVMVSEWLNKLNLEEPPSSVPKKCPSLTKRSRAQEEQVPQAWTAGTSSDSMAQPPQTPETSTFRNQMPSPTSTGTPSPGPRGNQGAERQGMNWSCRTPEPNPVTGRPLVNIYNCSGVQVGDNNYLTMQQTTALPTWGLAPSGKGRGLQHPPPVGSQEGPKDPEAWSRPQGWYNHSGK
T9 sequence (P53671 whole entry): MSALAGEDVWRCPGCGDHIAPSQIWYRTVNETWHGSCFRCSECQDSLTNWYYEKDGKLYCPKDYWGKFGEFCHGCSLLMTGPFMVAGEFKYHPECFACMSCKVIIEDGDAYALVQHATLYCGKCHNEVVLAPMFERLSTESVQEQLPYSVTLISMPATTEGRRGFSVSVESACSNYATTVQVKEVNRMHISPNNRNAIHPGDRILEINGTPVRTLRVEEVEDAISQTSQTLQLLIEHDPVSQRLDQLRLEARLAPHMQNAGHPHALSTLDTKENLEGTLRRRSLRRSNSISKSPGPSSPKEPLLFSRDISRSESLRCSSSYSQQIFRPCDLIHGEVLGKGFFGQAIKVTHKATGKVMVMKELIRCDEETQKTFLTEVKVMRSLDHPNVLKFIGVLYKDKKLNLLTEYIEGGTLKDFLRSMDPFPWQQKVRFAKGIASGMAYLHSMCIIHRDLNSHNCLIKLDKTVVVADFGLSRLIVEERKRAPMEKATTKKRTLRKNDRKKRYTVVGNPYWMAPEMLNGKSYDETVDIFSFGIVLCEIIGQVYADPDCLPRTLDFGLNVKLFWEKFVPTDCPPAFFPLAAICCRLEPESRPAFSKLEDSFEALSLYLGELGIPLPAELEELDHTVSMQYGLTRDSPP
T3 sequence (P15056 whole entry K601E): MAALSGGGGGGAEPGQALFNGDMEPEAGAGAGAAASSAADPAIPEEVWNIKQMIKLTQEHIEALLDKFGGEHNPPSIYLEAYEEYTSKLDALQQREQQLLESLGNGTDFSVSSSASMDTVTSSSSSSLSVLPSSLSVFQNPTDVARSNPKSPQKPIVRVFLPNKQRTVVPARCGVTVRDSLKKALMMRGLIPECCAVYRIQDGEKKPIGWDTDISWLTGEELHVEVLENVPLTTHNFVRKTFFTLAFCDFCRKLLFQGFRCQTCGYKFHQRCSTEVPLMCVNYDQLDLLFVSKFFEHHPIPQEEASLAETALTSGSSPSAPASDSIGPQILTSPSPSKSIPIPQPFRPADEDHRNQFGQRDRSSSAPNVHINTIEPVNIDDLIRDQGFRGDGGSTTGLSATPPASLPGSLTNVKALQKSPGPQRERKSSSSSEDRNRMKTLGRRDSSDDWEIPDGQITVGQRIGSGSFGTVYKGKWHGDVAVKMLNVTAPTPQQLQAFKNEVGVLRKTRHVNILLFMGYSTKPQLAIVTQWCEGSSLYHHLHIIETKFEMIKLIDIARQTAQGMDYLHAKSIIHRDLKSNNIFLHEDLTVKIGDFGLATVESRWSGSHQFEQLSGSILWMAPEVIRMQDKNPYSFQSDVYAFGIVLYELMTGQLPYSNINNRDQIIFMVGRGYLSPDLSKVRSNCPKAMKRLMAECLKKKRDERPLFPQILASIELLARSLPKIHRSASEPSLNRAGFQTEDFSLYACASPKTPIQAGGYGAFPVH
T1 sequence (P22607 23-806): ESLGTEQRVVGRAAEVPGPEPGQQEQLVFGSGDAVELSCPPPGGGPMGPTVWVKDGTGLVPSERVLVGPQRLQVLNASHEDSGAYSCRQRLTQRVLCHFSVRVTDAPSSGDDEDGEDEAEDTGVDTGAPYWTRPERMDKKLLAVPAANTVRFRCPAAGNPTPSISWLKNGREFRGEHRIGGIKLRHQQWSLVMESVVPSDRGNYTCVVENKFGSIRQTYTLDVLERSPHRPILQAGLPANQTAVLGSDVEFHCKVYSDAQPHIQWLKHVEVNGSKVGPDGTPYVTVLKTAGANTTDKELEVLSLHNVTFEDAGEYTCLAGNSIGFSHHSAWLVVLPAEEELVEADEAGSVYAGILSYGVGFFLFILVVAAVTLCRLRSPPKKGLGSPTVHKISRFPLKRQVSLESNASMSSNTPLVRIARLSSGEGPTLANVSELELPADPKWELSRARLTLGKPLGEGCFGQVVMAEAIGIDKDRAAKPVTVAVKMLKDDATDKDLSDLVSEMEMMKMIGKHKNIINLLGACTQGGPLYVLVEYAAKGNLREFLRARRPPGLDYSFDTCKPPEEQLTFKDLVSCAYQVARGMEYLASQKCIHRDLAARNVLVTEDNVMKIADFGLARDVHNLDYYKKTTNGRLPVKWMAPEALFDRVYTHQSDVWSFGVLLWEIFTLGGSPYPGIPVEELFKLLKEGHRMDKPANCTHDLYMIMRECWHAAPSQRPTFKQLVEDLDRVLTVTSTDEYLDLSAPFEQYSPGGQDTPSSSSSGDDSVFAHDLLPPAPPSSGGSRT
T8 sequence (P49841 whole entry): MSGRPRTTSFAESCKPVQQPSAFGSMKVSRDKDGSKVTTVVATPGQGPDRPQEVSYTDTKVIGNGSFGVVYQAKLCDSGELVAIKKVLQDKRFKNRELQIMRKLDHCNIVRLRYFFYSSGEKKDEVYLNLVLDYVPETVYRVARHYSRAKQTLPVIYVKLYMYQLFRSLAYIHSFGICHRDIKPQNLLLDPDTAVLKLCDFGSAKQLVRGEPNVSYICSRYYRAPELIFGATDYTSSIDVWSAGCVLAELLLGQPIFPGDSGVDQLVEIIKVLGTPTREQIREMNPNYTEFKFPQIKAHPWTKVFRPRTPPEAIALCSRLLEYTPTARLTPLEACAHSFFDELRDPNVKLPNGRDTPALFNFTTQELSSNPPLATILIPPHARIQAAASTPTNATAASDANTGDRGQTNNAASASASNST
T6 sequence (P78362 whole entry): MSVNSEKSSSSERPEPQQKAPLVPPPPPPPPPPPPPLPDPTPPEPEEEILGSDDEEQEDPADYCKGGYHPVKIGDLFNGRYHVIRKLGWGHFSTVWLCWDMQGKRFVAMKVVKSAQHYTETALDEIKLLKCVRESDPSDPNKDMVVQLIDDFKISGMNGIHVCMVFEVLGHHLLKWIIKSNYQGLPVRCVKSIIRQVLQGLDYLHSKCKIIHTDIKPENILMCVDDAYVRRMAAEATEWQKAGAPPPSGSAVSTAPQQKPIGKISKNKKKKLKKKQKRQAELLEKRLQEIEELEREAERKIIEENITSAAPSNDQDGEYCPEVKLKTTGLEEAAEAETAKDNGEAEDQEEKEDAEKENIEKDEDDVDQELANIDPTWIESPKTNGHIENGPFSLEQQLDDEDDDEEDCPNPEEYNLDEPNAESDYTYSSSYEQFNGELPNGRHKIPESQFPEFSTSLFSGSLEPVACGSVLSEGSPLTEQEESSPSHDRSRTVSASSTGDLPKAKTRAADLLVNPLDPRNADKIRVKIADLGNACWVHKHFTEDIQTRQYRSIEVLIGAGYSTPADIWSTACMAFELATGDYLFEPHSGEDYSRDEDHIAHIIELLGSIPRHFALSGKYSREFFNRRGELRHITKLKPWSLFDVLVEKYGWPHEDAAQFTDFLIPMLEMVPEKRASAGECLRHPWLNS

SMILES | remaining activity at 10 µM (382 unique human kinases [1]) | remaining activity at 10 µM (382 unique human kinases [2]) | remaining activity at 10 µM (382 unique human kinases [3]) | remaining activity at 10 µM (382 unique human kinases [4]) | remaining activity at 10 µM (382 unique human kinases [5]) | remaining activity at 10 µM (382 unique human kinases [6]) | remaining activity at 10 µM (382 unique human kinases [7]) | remaining activity at 10 µM (382 unique human kinases [8]) | remaining activity at 10 µM (382 unique human kinases [9]) | remaining activity at 10 µM (382 unique human kinases [10]) | remaining activity at 10 µM (382 unique human kinases [11]) | other results
CC(C)c1cc(-c2n[nH]c(=O)n2-c2ccc3c(ccn3C)c2)c(O)cc1O [Ganetespib (STA9090)] | 62.6% | 88.2% | 107% | 80.9% | 74.5% | 89.8% |  |  |  |  |  | 
CC(C)c1cc(-c2n[nH]c(=O)n2-c2ccc3c(ccn3C)c2)c(O)cc1O [Ganetespib] |  |  |  |  |  |  | 59.1% | 29.4% | 46.7% | 35% | 99.6% | 
CCNC(=O)c1noc(-c2cc(C(C)C)c(O)cc2O)c1-c1ccc(CN2CCOCC2)cc1 [Luminespib (AUY-922)] | 97.2% | 113% | 101% | 105% | 104% | 99.5% |  |  |  |  |  | % Enzyme Activity (relative to DMSO controls) (382 unique human kinases [1]): 96.41%; % Enzyme Activity (relative to DMSO controls) (382 unique human kinases [2]): 111.45%; % Enzyme Activity (relative to DMSO controls) (382 unique human kinases [3]): 100.38%; % Enzyme Activity (relative to DMSO controls) (382 unique human kinases [4]): 102.48%; % Enzyme Activity (relative to DMSO controls) (382 unique human kinases [5]): 100.72%; % Enzyme Activity (relative to DMSO controls) (382 unique human kinases [6]): 97.52%
CCNC(=O)c1noc(-c2cc(C(C)C)c(O)cc2O)c1-c1ccc(CN2CCOCC2)cc1 [Luminespib] |  |  |  |  |  |  | 124% | 110% | 101% | 90.7% | 99.3% | % Enzyme Activity (relative to DMSO controls) (382 unique human kinases [7]): 115.01%; % Enzyme Activity (relative to DMSO controls) (382 unique human kinases [8]): 110.01%; % Enzyme Activity (relative to DMSO controls) (382 unique human kinases [9]): 100.64%; % Enzyme Activity (relative to DMSO controls) (382 unique human kinases [10]): 89.97%; % Enzyme Activity (relative to DMSO controls) (382 unique human kinases [11]): 99.27%
